Patent US20100093811A1 (priority 2007, published 2010)
Where two headings read alike, the source gives them in different places.

Tests used:
[1] = molecular target: wild-type HIV-1 protease (Human immunodeficiency virus type 1 group M subtype B, UniProt P04585); test: Assay for inhibition of microbial expressed HIV protease; assay type: biochemical; details: wild-type HIV-1 protease expressed in E. coli, peptide substrate, pH 5.5; read-out: Enzyme Inhibition - IC50
In short: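 E. coli-expressed protease (5 pM) preincubated with inhibitor 30 min at room temperature in 50 mM sodium acetate pH 5.5, 100 mM NaCl, 0.1% BSA. Substrate Val-Ser-Gln-Asn-(betanapthyl)Ala-Pro-Ile-Val at 440 micromolar, 1 h at 30° C; acid-quenched, product peak area by C18 HPLC gives inhibition.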

[2] = tested on: acute HIV infection of T-lymphoid cells; test: Assay for inhibition of HIV replication (spread assay); assay type: cell-based, HIV-1; details: read-out: Spread - IC95
Method: • Assay for Inhibition of HIV Replication
Assays for the inhibition of acute HIV infection of T-lymphoid cells were conducted in accordance with Vacca, J. P. et al., Proc. Natl. Acad. Sci. USA 1994, 91: 4096.

[3] = inhibition of HIV-1 replication, 10% FBS
[4] = Human immunodeficiency virus 1, T-lymphoid

COC(=O)N[C@H](C(=O)NC(CO)CCCC(CO)N(CCC(C)C)S(=O)(=O)c1ccc(N)cc1)C(c1ccccc1)c1ccccc1 (single isomer, unassigned) [Example M1-7B, N-[(1R or 1S, 5R or 5S)-5-[[(4-aminophenyl)sulfonyl](3-methylbutyl)amino]-6-hydroxy-1-(hydroxymethyl)hexyl]-Nα-(methoxycarbonyl)-β-phenyl-L-phenylalaninamide]
IC50 [1]: 0.013 nM
IC95 [2, 3]: 230 nM

COC(=O)N[C@H](C(=O)N[C@H](CCC[C@@H](CO)N(C(C)C)S(=O)(=O)c1ccc(N)cc1)C(C)C)C(c1ccccc1)c1ccccc1 [Example F14, N-{(1R,5S)-5-[[(4-aminophenyl)sulfonyl](isopropyl)amino]-6-hydroxy-1-isopropylhexyl}-Nα-(methoxycarbonyl)-β-phenyl-L-phenylalaninamide]
IC50 [1]: 1.76 nM
IC95 [2, 4]: 148 nM

CC[C@@H](CCC[C@@H](CO)N(C(C)C)S(=O)(=O)c1ccc(N)cc1)NC(=O)[C@@H](NC(=O)OC)C(c1ccccc1)c1ccccc1 [Example G18, N-{(1S,5S)-5-[[(4-aminophenyl)sulfonyl](isopropyl)amino]-1-ethyl-6-hydroxyhexyl}-Nα-(methoxycarbonyl)-β-phenyl-L-phenylalaninamide]
IC50 [1]: 0.755 nM
IC95 [2, 4]: 199 nM

COC(=O)N[C@H](C(=O)N[C@@H](C)CCC[C@@H](CO)N(CCC(C)C)S(=O)(=O)c1ccc(N)c(F)c1)C(c1ccccc1)c1ccccc1 [Example D12, N-{(1S,5S)-5-[[(4-amino-3-fluorophenyl)sulfonyl](3-methylbutyl)amino]-6-hydroxy-1-methylhexyl}-Nα-(methoxycarbonyl)-β-phenyl-L-phenylalaninamide]
IC50 [1]: 0.012 nM
IC95 [2, 4]: 6 nM

COC(=O)N[C@H](C(=O)N[C@@H](C)CCC[C@@H](CO)N(CC(C)C)S(=O)(=O)c1ccc(CO)cc1)C(c1ccccc1)c1ccccc1 [Example G16, N-{(1S,5S)-6-hydroxy-5-[{[4-(hydroxymethyl)phenyl]sulfonyl}(isobutyl)amino]-1-methylhexyl}-Nα-(methoxycarbonyl)-β-phenyl-L-phenylalaninamide]
IC50 [1]: 0.01 nM
IC95 [2, 4]: 8 nM

COC(=O)N[C@H](C(=O)N[C@H](CCC[C@@H](CO)N(C)S(=O)(=O)c1ccc(CO)cc1)C1CC1)C(c1ccccc1)c1ccccc1 [Example I6, N-{(1R,5S)-1-cyclopropyl-6-hydroxy-5-[{[4-(hydroxymethyl)phenyl]sulfonyl}(methyl)amino]hexyl}-Nα-(methoxycarbonyl)-β-phenyl-L-phenylalaninamide]
IC50 [1]: 1.03 nM
IC95 [2, 4]: 187 nM

CCN([C@H](CO)CCC[C@H](C)NC(=O)[C@@H](NC(=O)OC)C(c1ccccc1)c1ccccc1)S(=O)(=O)c1ccc(N)cc1 [Example G5, N-{(1S,5S)-5-[[(4-aminophenyl)sulfonyl](ethyl)amino]-6-hydroxy-1-methylhexyl}-Nα-(methoxycarbonyl)-β-phenyl-L-phenylalaninamide]
IC50 [1]: 0.378 nM
IC95 [2, 4]: 64 nM

COC(=O)N[C@H](C(=O)NCCC(C)C[C@@H](CO)N(CCC(C)C)S(=O)(=O)c1ccc(C)cc1)C(c1ccccc1)c1ccccc1 (stereo partly shown) [Example B2]
IC50 [1]: 0.52 nM
IC95 [2, 3]: 368 nM

CCCN([C@H](CO)CCCC(C)(C)NC(=O)[C@@H](NC(=O)OC)C(c1ccccc1)c1ccccc1)S(=O)(=O)c1ccc(N)cc1 [Example L6, N-{(5S)-5-[[(4-aminophenyl)sulfonyl](propyl)amino]-6-hydroxy-1,1-dimethylhexyl}-Nα-(methoxycarbonyl)-β-phenyl-L-phenylalaninamide]
IC50 [1]: 0.095 nM
IC95 [2, 4]: 196 nM

COC(=O)N[C@H](C(=O)N[C@H](CCC[C@@H](CO)N(CCC(C)C)S(=O)(=O)c1ccc(CO)cc1)C(C)(C)C)C(c1ccccc1)c1ccccc1 [Example J6, N-{(1R,5S)-1-tert-butyl-6-hydroxy-5-[{[4-(hydroxymethyl)phenyl]sulfonyl}(3-methylbutyl)amino]hexyl}-Nα-(methoxycarbonyl)-β-pbenyl-L-phenylalaninamide]
IC50 [1]: 0.976 nM
IC95 [2, 4]: 327 nM

COC(=O)N[C@H](C(=O)NC1(CCC[C@@H](CO)N(CCC(C)C)S(=O)(=O)c2ccc(N)cc2)CCCC1)C(c1ccccc1)c1ccccc1 [Example L1, N-(1-{(4S)-4-[[(4-aminophenyl)sulfonyl](3-methylbutyl)amino]-5-hydroxypentyl}cyclopentyl)-Nα-(methoxycarbonyl)-β-phenyl-L-phenylalaninamide]
IC50 [1]: 0.37 nM
IC95 [2, 4]: 274 nM
